Measurements from publication PMC6095594, “Pre-clinical evaluation of quinoxaline-derived chalcones in tuberculosis” (PLoS ONE, 2018).
Several values for one entry are separate records, joined by “and”; a condition that tells them apart may be missing. Equal entries are not always repeated.

What was measured:
CYP2C19 = CYP2C19 (Homo sapiens, UniProt P33261); conditions: human liver microsomes, CYP2C19, N9 0.01–100 μmol L^-1
S. typhimurium TA100 = experiment: Salmonella/microsome mutagenicity test
Method: (§1) Salmonella typhimurium strains TA98, TA97a, TA100, TA1535, and TA102 were provided by MOLTOX® (Molecular Toxicology Inc. USA). Mutagenicity was assayed according to the pre-incubation procedure following the recommendation described in Mortelmans and Zieger (2000). […] Briefly, 100 μL of test bacterial cultures (1–2 x 10^9 cells/mL) were incubated at 37 °C with different concentrations of N9 (10–400 μg/plate) in the presence or absence of S9 mix, for 20 min, without shaking. […] Plates were incubated in the dark at 37 °C for 48 h before counting the revertant colonies. Assays were repeated twice and the plating for each concentration was conducted in triplicate. Data were evaluated by one-way analysis of variance (ANOVA), followed by Dunnett's post-test, using GraphPad Prism 5.0 (GraphPad, San Diego, CA, USA).

S. typhimurium TA1535 = experiment: Salmonella/microsome mutagenicity test
Method: as §1

CYP3A4/5 = experiment: in vitro; conditions: human, microsomes, pH 7.4
M. tuberculosis H37Rv = experiment: Checkerboard assay, two-drug combination with REMA readout; type: cell-based, Mycobacterium tuberculosis; conditions: for MIC Combined: checkerboard, three independent experiments
S. typhimurium TA98 = experiment: Salmonella/microsome mutagenicity test
Method: (§2) Salmonella typhimurium strains TA98, TA97a, TA100, TA1535, and TA102 were provided by MOLTOX® (Molecular Toxicology Inc. USA). Mutagenicity was assayed according to the pre-incubation procedure following the recommendation described in Mortelmans and Zieger (2000). […] Briefly, 100 μL of test bacterial cultures (1–2 x 10^9 cells/mL) were incubated at 37 °C with different concentrations of N9 (10–400 μg/plate) in the presence or absence of S9 mix, for 20 min, without shaking. […] 2-aminoanthracene (2-AA, 5 μg/plate) was used as positive control for all strains in the presence of metabolic activation (with S9 mix). […] Plates were incubated in the dark at 37 °C for 48 h before counting the revertant colonies. Assays were repeated twice and the plating for each concentration was conducted in triplicate. Data were evaluated by one-way analysis of variance (ANOVA), followed by Dunnett's post-test, using GraphPad Prism 5.0 (GraphPad, San Diego, CA, USA).

S. typhimurium TA102 = experiment: Salmonella/microsome mutagenicity test
Method: as §2

S. typhimurium TA97a = experiment: Salmonella/microsome mutagenicity test
Method: as §2

CYP2D6 = CYP2D6 (Homo sapiens, UniProt P10635); conditions: human liver microsomes, CYP2D6, N9 0.01–100 μmol L^-1
CYP2D6, sequence (P10635 whole entry): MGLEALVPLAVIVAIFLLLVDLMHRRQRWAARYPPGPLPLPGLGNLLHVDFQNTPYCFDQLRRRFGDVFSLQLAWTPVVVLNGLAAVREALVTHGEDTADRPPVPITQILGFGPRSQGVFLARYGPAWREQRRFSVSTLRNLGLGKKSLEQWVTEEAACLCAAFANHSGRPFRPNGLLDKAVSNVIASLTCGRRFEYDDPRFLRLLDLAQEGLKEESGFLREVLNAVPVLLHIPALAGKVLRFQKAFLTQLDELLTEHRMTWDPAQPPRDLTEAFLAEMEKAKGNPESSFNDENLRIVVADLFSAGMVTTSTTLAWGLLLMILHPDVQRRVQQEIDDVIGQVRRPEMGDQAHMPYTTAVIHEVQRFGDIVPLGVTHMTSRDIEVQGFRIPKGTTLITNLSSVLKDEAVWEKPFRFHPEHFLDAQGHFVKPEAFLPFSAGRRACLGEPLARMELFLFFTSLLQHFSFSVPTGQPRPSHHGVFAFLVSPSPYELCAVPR

CYP2C19, sequence (P33261 whole entry): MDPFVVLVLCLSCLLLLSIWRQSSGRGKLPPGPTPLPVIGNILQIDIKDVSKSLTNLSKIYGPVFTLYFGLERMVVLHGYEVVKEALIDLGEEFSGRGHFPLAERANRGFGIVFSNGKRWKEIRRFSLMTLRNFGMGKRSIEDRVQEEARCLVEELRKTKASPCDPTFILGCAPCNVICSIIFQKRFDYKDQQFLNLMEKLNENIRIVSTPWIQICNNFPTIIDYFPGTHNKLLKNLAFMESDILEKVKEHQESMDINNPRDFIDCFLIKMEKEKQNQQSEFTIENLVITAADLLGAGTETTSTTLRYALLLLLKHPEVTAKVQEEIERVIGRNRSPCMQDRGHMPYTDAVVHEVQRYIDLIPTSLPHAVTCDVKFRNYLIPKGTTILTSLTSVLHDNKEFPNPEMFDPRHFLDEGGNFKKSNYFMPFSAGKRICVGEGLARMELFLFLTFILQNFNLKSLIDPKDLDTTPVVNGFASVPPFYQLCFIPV

SMILES: COc1ccc(OC)c(C(=O)/C=C/c2ccc3nccnc3c2)c1 [N9]
- percentage of remaining enzyme activity (CYP2C19): approximately 100%
- MI: mutagenic index (S. typhimurium TA100; TA100, +S9, 10 μg/plate): 0.94
- Number of revertants/plate (S. typhimurium TA100; TA100, +S9, 10 μg/plate): 108.7±15.2 Rev/plate
- MI: mutagenic index (S. typhimurium TA100; TA100, +S9, 50 μg/plate): 1.13
- Number of revertants/plate (S. typhimurium TA100; TA100, +S9, 50 μg/plate): 130.7±10.7 Rev/plate
- MI: mutagenic index (S. typhimurium TA100; TA100, +S9, 100 μg/plate): 0.97
- Number of revertants/plate (S. typhimurium TA100; TA100, +S9, 100 μg/plate): 112.7±15.5 Rev/plate
- MI: mutagenic index (S. typhimurium TA100; TA100, +S9, 200 μg/plate): 0.95
- Number of revertants/plate (S. typhimurium TA100; TA100, +S9, 200 μg/plate): 110.0±11.8 Rev/plate
- MI: mutagenic index (S. typhimurium TA100; TA100, +S9, 400 μg/plate): 0.97
- Number of revertants/plate (S. typhimurium TA100; TA100, +S9, 400 μg/plate): 112.0±13.9 Rev/plate
- MI: mutagenic index (S. typhimurium TA100; TA100, -S9, 10 μg/plate): 1.08
- Number of revertants/plate (S. typhimurium TA100; TA100, -S9, 10 μg/plate): 125.0±10.5 Rev/plate
- MI: mutagenic index (S. typhimurium TA100; TA100, -S9, 50 μg/plate): 0.88
- Number of revertants/plate (S. typhimurium TA100; TA100, -S9, 50 μg/plate): 101.0±12.5 Rev/plate
- MI: mutagenic index (S. typhimurium TA100; TA100, -S9, 100 μg/plate): 0.84
- Number of revertants/plate (S. typhimurium TA100; TA100, -S9, 100 μg/plate): 97.0±20.1 Rev/plate
- MI: mutagenic index (S. typhimurium TA100; TA100, -S9, 200 μg/plate): 0.95
- Number of revertants/plate (S. typhimurium TA100; TA100, -S9, 200 μg/plate): 109.7±7.8 Rev/plate
- MI: mutagenic index (S. typhimurium TA100; TA100, -S9, 400 μg/plate): 0.84
- Number of revertants/plate (S. typhimurium TA100; TA100, -S9, 400 μg/plate): 96.7±9.3 Rev/plate
- MI: mutagenic index (S. typhimurium TA1535; TA1535, +S9, 10 μg/plate): 1.16
- Number of revertants/plate (S. typhimurium TA1535; TA1535, +S9, 10 μg/plate): 9.7±1.2 Rev/plate
- MI: mutagenic index (S. typhimurium TA1535; TA1535, +S9, 50 μg/plate): 1.24
- Number of revertants/plate (S. typhimurium TA1535; TA1535, +S9, 50 μg/plate): 10.3±2.5 Rev/plate
- MI: mutagenic index (S. typhimurium TA1535; TA1535, +S9, 100 μg/plate): 1.00
- Number of revertants/plate (S. typhimurium TA1535; TA1535, +S9, 100 μg/plate): 8.3±4.9 Rev/plate
- MI: mutagenic index (S. typhimurium TA1535; TA1535, +S9, 200 μg/plate): 1.04
- Number of revertants/plate (S. typhimurium TA1535; TA1535, +S9, 200 μg/plate): 8.7±1.2 Rev/plate
- MI: mutagenic index (S. typhimurium TA1535; TA1535, +S9, 400 μg/plate): 0.68
- Number of revertants/plate (S. typhimurium TA1535; TA1535, +S9, 400 μg/plate): 5.7±1.2 Rev/plate
- MI: mutagenic index (S. typhimurium TA1535; TA1535, -S9, 10 μg/plate): 1.03
- Number of revertants/plate (S. typhimurium TA1535; TA1535, -S9, 10 μg/plate): 11.7±0.6 Rev/plate
- MI: mutagenic index (S. typhimurium TA1535; TA1535, -S9, 50 μg/plate): 0.82
- Number of revertants/plate (S. typhimurium TA1535; TA1535, -S9, 50 μg/plate): 9.3±0.6 Rev/plate
- MI: mutagenic index (S. typhimurium TA1535; TA1535, -S9, 100 μg/plate): 1.03
- Number of revertants/plate (S. typhimurium TA1535; TA1535, -S9, 100 μg/plate): 11.7±5.9 Rev/plate
- MI: mutagenic index (S. typhimurium TA1535; TA1535, -S9, 200 μg/plate): 1.18
- Number of revertants/plate (S. typhimurium TA1535; TA1535, -S9, 200 μg/plate): 13.3±4.0 Rev/plate
- MI: mutagenic index (S. typhimurium TA1535; TA1535, -S9, 400 μg/plate): 1.24
- Number of revertants/plate (S. typhimurium TA1535; TA1535, -S9, 400 μg/plate): 14.0±3.6 Rev/plate
- IC50 (CYP3A4/5): > 100 µM
- FICI (fractional inhibitory concentration index) (M. tuberculosis H37Rv; N9 combined with MFX): below 0.5
- MIC Combined (M. tuberculosis H37Rv; combination N9 + EMB): 0.78 mg/L
- MIC Combined (M. tuberculosis H37Rv; combination N9 + INH): 0.78 mg/L
- MIC Combined (M. tuberculosis H37Rv; combination N9 + RIF): 0.78 mg/L and 1.56 mg/L
- MI: mutagenic index (S. typhimurium TA98; TA98, +S9, 10 μg/plate): 1.09
- Number of revertants/plate (S. typhimurium TA98; TA98, +S9, 10 μg/plate): 43.7±4.7 Rev/plate
- MI: mutagenic index (S. typhimurium TA98; TA98, +S9, 50 μg/plate): 0.80
- Number of revertants/plate (S. typhimurium TA98; TA98, +S9, 50 μg/plate): 32.0±7.8 Rev/plate
- MI: mutagenic index (S. typhimurium TA98; TA98, +S9, 100 μg/plate): 0.94
- Number of revertants/plate (S. typhimurium TA98; TA98, +S9, 100 μg/plate): 37.7±5.7 Rev/plate
- MI: mutagenic index (S. typhimurium TA98; TA98, +S9, 200 μg/plate): 1.05
- Number of revertants/plate (S. typhimurium TA98; TA98, +S9, 200 μg/plate): 42.0±5.6 Rev/plate
- MI: mutagenic index (S. typhimurium TA98; TA98, +S9, 400 μg/plate): 1.06
- Number of revertants/plate (S. typhimurium TA98; TA98, +S9, 400 μg/plate): 42.3±6.7 Rev/plate
- MI: mutagenic index (S. typhimurium TA98; TA98, -S9, 10 μg/plate): 0.83
- Number of revertants/plate (S. typhimurium TA98; TA98, -S9, 10 μg/plate): 28.3±7.6 Rev/plate
- MI: mutagenic index (S. typhimurium TA98; TA98, -S9, 50 μg/plate): 0.73
- Number of revertants/plate (S. typhimurium TA98; TA98, -S9, 50 μg/plate): 25.0±6.1 Rev/plate
- MI: mutagenic index (S. typhimurium TA98; TA98, -S9, 100 μg/plate): 0.81
- Number of revertants/plate (S. typhimurium TA98; TA98, -S9, 100 μg/plate): 27.7±4.0 Rev/plate
- MI: mutagenic index (S. typhimurium TA98; TA98, -S9, 200 μg/plate): 0.89
- Number of revertants/plate (S. typhimurium TA98; TA98, -S9, 200 μg/plate): 30.5±2.1 Rev/plate
- MI: mutagenic index (S. typhimurium TA98; TA98, -S9, 400 μg/plate): 1.24
- Number of revertants/plate (S. typhimurium TA98; TA98, -S9, 400 μg/plate): 42.5±15.8 Rev/plate
- MI: mutagenic index (S. typhimurium TA102; TA102, +S9, 10 μg/plate): 1.01
- Number of revertants/plate (S. typhimurium TA102; TA102, +S9, 10 μg/plate): 376.3±29.0 Rev/plate
- MI: mutagenic index (S. typhimurium TA102; TA102, +S9, 50 μg/plate): 0.96
- Number of revertants/plate (S. typhimurium TA102; TA102, +S9, 50 μg/plate): 358.0±49.1 Rev/plate
- MI: mutagenic index (S. typhimurium TA102; TA102, +S9, 100 μg/plate): 0.99
- Number of revertants/plate (S. typhimurium TA102; TA102, +S9, 100 μg/plate): 368.7±12.7 Rev/plate
- MI: mutagenic index (S. typhimurium TA102; TA102, +S9, 200 μg/plate): 1.02
- Number of revertants/plate (S. typhimurium TA102; TA102, +S9, 200 μg/plate): 382.0±58.2 Rev/plate
- MI: mutagenic index (S. typhimurium TA102; TA102, +S9, 400 μg/plate): 0.99
- Number of revertants/plate (S. typhimurium TA102; TA102, +S9, 400 μg/plate): 371.0±23.6 Rev/plate
- MI: mutagenic index (S. typhimurium TA102; TA102, -S9, 10 μg/plate): 0.75
- Number of revertants/plate (S. typhimurium TA102; TA102, -S9, 10 μg/plate): 254.3±47.1 Rev/plate
- MI: mutagenic index (S. typhimurium TA102; TA102, -S9, 50 μg/plate): 0.89
- Number of revertants/plate (S. typhimurium TA102; TA102, -S9, 50 μg/plate): 299.3±50.6 Rev/plate
- MI: mutagenic index (S. typhimurium TA102; TA102, -S9, 100 μg/plate): 1.01
- Number of revertants/plate (S. typhimurium TA102; TA102, -S9, 100 μg/plate): 341.3±16.8 Rev/plate
- MI: mutagenic index (S. typhimurium TA102; TA102, -S9, 200 μg/plate): 0.96
- Number of revertants/plate (S. typhimurium TA102; TA102, -S9, 200 μg/plate): 324.3±4.2 Rev/plate
- MI: mutagenic index (S. typhimurium TA102; TA102, -S9, 400 μg/plate): 0.95
- Number of revertants/plate (S. typhimurium TA102; TA102, -S9, 400 μg/plate): 321.0±27.4 Rev/plate
- MI: mutagenic index (S. typhimurium TA97a; +S9, 10 μg/plate): 1.11
- Number of revertants/plate (S. typhimurium TA97a; +S9, 10 μg/plate): 128.0±12.1 Rev/plate
- MI: mutagenic index (S. typhimurium TA97a; +S9, 50 μg/plate): 0.92
- Number of revertants/plate (S. typhimurium TA97a; +S9, 50 μg/plate): 106.0±14.2 Rev/plate
- MI: mutagenic index (S. typhimurium TA97a; +S9, 100 μg/plate): 0.98
- Number of revertants/plate (S. typhimurium TA97a; +S9, 100 μg/plate): 113.5±5.0 Rev/plate
- MI: mutagenic index (S. typhimurium TA97a; +S9, 200 μg/plate): 0.71
- Number of revertants/plate (S. typhimurium TA97a; +S9, 200 μg/plate): 82.0±1.0 Rev/plate
- MI: mutagenic index (S. typhimurium TA97a; +S9, 400 μg/plate): 0.90
- Number of revertants/plate (S. typhimurium TA97a; +S9, 400 μg/plate): 104.0±28.8 Rev/plate
- MI: mutagenic index (S. typhimurium TA97a; -S9, 10 μg/plate): 1.14
- Number of revertants/plate (S. typhimurium TA97a; -S9, 10 μg/plate): 145.7±20.3 Rev/plate
- MI: mutagenic index (S. typhimurium TA97a; -S9, 50 μg/plate): 0.98
- Number of revertants/plate (S. typhimurium TA97a; -S9, 50 μg/plate): 125.0±12.5 Rev/plate
- MI: mutagenic index (S. typhimurium TA97a; -S9, 100 μg/plate): 0.93
- Number of revertants/plate (S. typhimurium TA97a; -S9, 100 μg/plate): 118.0±8.2 Rev/plate
- MI: mutagenic index (S. typhimurium TA97a; -S9, 200 μg/plate): 0.98
- Number of revertants/plate (S. typhimurium TA97a; -S9, 200 μg/plate): 124.3±13.3 Rev/plate
- MI: mutagenic index (S. typhimurium TA97a; -S9, 400 μg/plate): 1.05
- Number of revertants/plate (S. typhimurium TA97a; -S9, 400 μg/plate): 134.0±3.6 Rev/plate
- percentage of remaining enzyme activity (CYP2D6): approximately 100%
